Measurements: publication PMC11788587, “Validating Low‐Dose Iohexol as a Marker for Glomerular Filtration Rate by In Vitro and In Vivo Studies” (Clinical and Translational Science, 2025)
Read-outs that look alike come from different tables or passages of the source.

How the values were obtained:
[1] = molecular target: T1, hOAT1 (Homo sapiens, UniProt Q4U2R8); experiment: Inhibition of hOAT1-mediated PAH uptake, stably transfected 293 cells; assay type: cell-based; settings: substrate 10 µM PAH, median (95% CI)
T1 construct: expressed in transfected cells; host or cells: HEK-293 (293) cells, pEBTetD plasmid, doxycycline-induced
T1 sequence (Q4U2R8 1-563): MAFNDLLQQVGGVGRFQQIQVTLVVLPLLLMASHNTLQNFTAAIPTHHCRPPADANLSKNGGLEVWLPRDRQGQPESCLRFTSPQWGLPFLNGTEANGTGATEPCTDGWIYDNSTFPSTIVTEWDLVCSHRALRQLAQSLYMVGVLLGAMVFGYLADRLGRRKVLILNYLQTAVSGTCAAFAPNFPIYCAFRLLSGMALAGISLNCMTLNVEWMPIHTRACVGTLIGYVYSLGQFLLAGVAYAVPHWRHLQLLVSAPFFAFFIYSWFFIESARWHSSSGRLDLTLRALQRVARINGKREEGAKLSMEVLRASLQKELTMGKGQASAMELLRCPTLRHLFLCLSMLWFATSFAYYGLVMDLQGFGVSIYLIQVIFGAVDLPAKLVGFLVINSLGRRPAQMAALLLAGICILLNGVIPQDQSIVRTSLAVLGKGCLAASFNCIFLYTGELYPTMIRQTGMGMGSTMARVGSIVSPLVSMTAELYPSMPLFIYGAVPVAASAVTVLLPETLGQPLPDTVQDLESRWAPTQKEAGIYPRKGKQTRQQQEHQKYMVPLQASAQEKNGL
Description: (§1) We characterized the inhibitory potential of iohexol on major drug transporters recommended by regulatory agencies, which were previously assessed in a clinical transporter phenotyping cocktail study. These transporters include hOAT1, hOAT3, hOCT1, hOCT2, hMATE1, hMATE2K, human organic anion transporter polypeptides (hOATP)1B1, hOATP1B3, and human multidrug resistance protein (hMDR)1. Additionally, we investigated whether iohexol is a substrate for any of the renal transporters among these, including hOAT1/3, hOCT1/2, and hMATE1/2K. Cell‐based uptake assays were used to assess the activities of hOAT1/3, hOCT1/2, hMATE1/2K, and hOATP1B1/1B3. Inside‐out membrane vesicle uptake assays were used to evaluate the activity of hMDR1.
To determine the maximal inhibitory potential of iohexol, intracellular accumulation of a standard substrate was measured with and without the clinically relevant highest concentrations of iohexol. Control inhibitors were tested in each experiment.
In all subsequent in vitro studies, control experiments were conducted to validate the results. These included positive controls for substrates and inhibitors, as well as cells either without transporter expression or transfected with an empty vector, and control vesicles. Each condition, including cells or vesicles with the transporter and their respective controls, was analyzed in at least three replicates. For detailed information on materials, methods, and data analysis techniques used, refer to the Supporting Information. […]
(§2) R version 4.2.1 (R Foundation for Statistical Computing, Vienna, Austria) was used for statistical evaluations and data visualization. The data analysis approach for the in vitro study was detailed by Hsin CH et al..^1 In brief, for transport assays, the initial uptake rate was calculated by normalizing the substrate concentration to both the protein concentration and the incubation time for each dish or well. The transporter-mediated uptake rate (net uptake) was determined by performing an element-wise subtraction of uptake rates from different conditions. […]

[2] = molecular target: T1, hOAT1; experiment: Substrate assessment: iohexol uptake in 293 cells expressing hOAT1 vs control; assay type: in vitro ADME; settings: 10 μM iohexol, median (95% CI)
Description: as §1
For substrate assessments, iohexol was incubated with stably transfected HEK‐293 cells expressing one of the following transporters: hOAT1, hOAT3, hOCT1, hOCT2, hMATE1, or hMATE2K, as well as with control cells lacking transporter expression. Stably transfected cell lines containing pEBTetD plasmids with wild‐type human transporter cDNAs were generated as previously described. Transporter expression was induced by adding 1 μg/mL doxycycline to the growth medium for at least 20 h. Iohexol would be considered a substrate for these transporters if: (1) the ratio of iohexol uptake in cells expressing the transporter to that in control cells was ≥ 2, and (2) a known inhibitor of the transporter reduced iohexol uptake to ≤ 50% at concentrations ≥ 10 times its inhibition constant or half‐maximal inhibitory concentration.
Uptake assays were performed using stably transfected 293 cells, with or without the expression of one of the following transporters: hOAT1, hOAT3, hOCT1, hOCT2, hMATE1, or hMATE2K, as previously described.^1
For the substrate assessment, cells were incubated with 10 µM iohexol for 10 minutes and 30 minutes for each transporter. Inhibition assays were performed using specific standard substrates for each transporter: 10 µM para-aminohippuric acid (PAH) for hOAT1, 3 µM estrone-3-sulfate (E3S) for hOAT3, 50 µM metformin for hOCT1, 5 µM metformin for hOCT2, and 3 µM 1-methyl-4-phenylpyridinium (MPP+) for hMATE1 and hMATE2K. […]
as §2

[3] = cited from earlier work
[4] = tested on: rat‐isolated perfused kidney; set-up: method as in ref 14 Masereeuw et al.; settings: mean ± standard deviation, ref 14 Masereeuw et al., cited from earlier work
[5] = tested on: P‐glycoprotein; set-up: method as in ref 16 Supawat et al.; settings: human cancer cell lines; not statistically significant; ref 16 Supawat et al.; cited from earlier work
[6] = tested on: OCT2; set-up: method as in ref 15 Yang et al.; settings: rat kidneys; ref 15 Yang et al.; cited from earlier work
[7] = tested on: OCT2; set-up: method as in ref 15 Yang et al.; settings: HK‐2 cells; ref 15 Yang et al.; cited from earlier work

Inhibitory effect (% reduction of specific activity) ([1]; 20 mM iohexol): no notable inhibitory effects | inhibition at 1000 µM ([1]; HEK293, 1 mM iohexol, read-out: Inhibitory effect (% reduction of specific activity)): -0.45% | inhibition at 20000 µM ([1]; HEK293, 20 mM iohexol, read-out: Inhibitory effect (% reduction of specific activity)): 3.1% | Differences in intracellular accumulation (expression on minus off) ([2]; 10 minutes): -0.39 (-3.4 to 1.1) pmol/mg protein | Uptake ratio (transporter-expressing vs non-expressing cells) ([2]; 10 minutes): 0.91 (0.75 to 1.2) | Differences in intracellular accumulation (expression on minus off) ([2]; 30 minutes): 0.98 (-0.62 to 2.1) pmol/mg protein | Uptake ratio (transporter-expressing vs non-expressing cells) ([2]; 30 minutes): 1.1 (0.95 to 1.3)
Compound: CC(=O)N(CC(O)CO)c1c(I)c(C(=O)NCC(O)CO)c(I)c(C(=O)NCC(O)CO)c1I (centres unmarked) [iohexol]
Volume of distribution, previous three-compartment model estimate (median) [3]: 15.09 L | Cmax ([3]; following a 3235 mg iohexol injection, patients aged ≥ 70 years, median GFR 60.7 mL/min/1.73 m^2, read-out: Cmax (initial plasma concentration)): ~370 µM | Ratio of renal clearance to GFR ([4]; perfusate concentration 5 μg/mL): 0.63 ± 0.06 | Ratio of renal clearance to GFR ([4]; perfusate concentration 20 μg/mL): 1.02 ± 0.06 | Inhibitory effect on P-glycoprotein [5]: mild inhibitory effect | Expression of OCT2 [6]: downregulated | Expression of OCT2 [7]: downregulated
